Laboratory results from PubChem BioAssay AID256 (DTP/NCI, 2004).
Several values for one entry are separate records, joined by “and”; a condition that tells them apart may be missing. Equal values may be shown once. Inconclusive results and toxic doses are left out.

Test system: CD2F1 mice, L1210 leukemia ip, survival T/C
Assay: NCI In Vivo Anticancer Drug Screen. Data for tumor model L1210 Leukemia (intraperitoneal) in CD2F1 (CDF1) mice
Settings: higher = longer survival
Procedure, shortened: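 Each value reflects a quotient of treated over vehicle control outcomes in mice with a transplanted tumor.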

[1] = endpoint: mean survival time, dose: 100.0 mg/kg/injection, schedule: Q04DX003 (ip), vehicle: saline with Tween-80
[2] = endpoint: mean survival time, dose: 200.0 mg/kg/injection, schedule: Q04DX003 (ip), vehicle: saline with Tween-80
[3] = endpoint: mean survival time, dose: 400.0 mg/kg/injection, schedule: Q04DX003 (ip), vehicle: saline with Tween-80
[4] = endpoint: mean survival time, dose: 100.0 mg/kg/injection, schedule: Q01DX009 (ip), vehicle: saline with Tween-80
[5] = endpoint: mean survival time, dose: 200.0 mg/kg/injection, schedule: Q01DX009 (ip), vehicle: saline with Tween-80
[6] = endpoint: mean survival time, dose: 12.5 mg/kg/injection, schedule: Q01DX009 (ip), vehicle: saline with Tween-80
[7] = endpoint: mean survival time, dose: 25.0 mg/kg/injection, schedule: Q01DX009 (ip), vehicle: saline with Tween-80

Cc1c(N)nc([C@H](CC(N)=O)NC[C@H](N)C(N)=O)nc1C(=O)N[C@H](C(=O)N[C@H](C)[C@@H](O)[C@H](C)C(=O)N[C@H](C(=O)NCCc1nc(-c2nc(C(=O)NCCC[S+](C)C)cs2)cs1)[C@@H](C)O)C(OC1OC(CO)C(O)C(O)C1OC1OC(CO)C(O)C(OC(N)=O)C1O)c1cnc[nH]1 (some centres undefined)
T/C (endpoint: mean survival time, dose: 2.0 mg/kg/injection, schedule: Q01DX009 (ip), vehicle: saline): 103 % of control and 106 % of control
T/C (endpoint: mean survival time, dose: 2.0 mg/kg/injection, schedule: Q01DX009 (ip), vehicle: water): 106 % of control
T/C (endpoint: mean survival time, dose: 4.0 mg/kg/injection, schedule: Q01DX009 (ip), vehicle: water): 110 % of control
T/C (endpoint: mean survival time, dose: 8.0 mg/kg/injection, schedule: Q01DX009 (ip), vehicle: water): 110 % of control
T/C (endpoint: mean survival time, dose: 12.0 mg/kg/injection, schedule: Q01DX009 (ip), vehicle: saline): 117 % of control
T/C (endpoint: mean survival time, dose: 16.0 mg/kg/injection, schedule: Q01DX009 (ip), vehicle: water): 108 % of control
T/C (endpoint: mean survival time, dose: 32.0 mg/kg/injection, schedule: Q01DX009 (ip), vehicle: saline): 115 % of control and 104 % of control
T/C (endpoint: mean survival time, dose: 32.0 mg/kg/injection, schedule: Q01DX009 (ip), vehicle: water): 103 % of control
T/C (endpoint: mean survival time, dose: 64.0 mg/kg/injection, schedule: Q01DX009 (ip), vehicle: saline): 104 % of control
T/C (endpoint: median survival time, dose: 0.5 mg/kg/injection, schedule: Q01DX009 (ip), vehicle: saline): 88 % of control
T/C (endpoint: median survival time, dose: 0.5 mg/kg/injection, schedule: Q03HX024 (ip), vehicle: saline): 105 % of control
T/C (endpoint: median survival time, dose: 1.0 mg/kg/injection, schedule: Q01DX009 (ip), vehicle: saline): 100 % of control and 108 % of control
T/C (endpoint: median survival time, dose: 1.0 mg/kg/injection, schedule: Q03HX016 (ip), vehicle: saline): 104 % of control
T/C (endpoint: median survival time, dose: 1.0 mg/kg/injection, schedule: Q03HX024 (ip), vehicle: saline): 105 % of control
T/C (endpoint: median survival time, dose: 2.0 mg/kg/injection, schedule: Q03HX008 (ip), vehicle: saline): 109 % of control
T/C (endpoint: median survival time, dose: 2.0 mg/kg/injection, schedule: Q03HX016 (ip), vehicle: saline): 104 % of control
T/C (endpoint: median survival time, dose: 2.0 mg/kg/injection, schedule: Q03HX024 (ip), vehicle: saline): 104 % of control
T/C (endpoint: median survival time, dose: 4.0 mg/kg/injection, schedule: Q03HX008 (ip), vehicle: saline): 104 % of control
T/C (endpoint: median survival time, dose: 4.0 mg/kg/injection, schedule: Q03HX016 (ip), vehicle: saline): 97 % of control
T/C (endpoint: median survival time, dose: 4.0 mg/kg/injection, schedule: Q03HX024 (ip), vehicle: saline): 104 % of control
T/C (endpoint: median survival time, dose: 8.0 mg/kg/injection, schedule: Q03HX008 (ip), vehicle: saline): 107 % of control
T/C (endpoint: median survival time, dose: 8.0 mg/kg/injection, schedule: Q03HX016 (ip), vehicle: saline): 104 % of control
T/C (endpoint: median survival time, dose: 8.0 mg/kg/injection, schedule: Q04DX003 (ip), vehicle: saline): 107 % of control
T/C (endpoint: median survival time, dose: 8.0 mg/kg/injection, schedule: Q08DX002 (ip), vehicle: saline): 105 % of control
T/C (endpoint: median survival time, dose: 16.0 mg/kg/injection, schedule: Q01DX001 (ip), vehicle: saline): 103 % of control
T/C (endpoint: median survival time, dose: 16.0 mg/kg/injection, schedule: Q03HX008 (ip), vehicle: saline): 103 % of control
T/C (endpoint: median survival time, dose: 16.0 mg/kg/injection, schedule: Q03HX016 (ip), vehicle: saline): 101 % of control
T/C (endpoint: median survival time, dose: 16.0 mg/kg/injection, schedule: Q04DX003 (ip), vehicle: saline): 109 % of control
T/C (endpoint: median survival time, dose: 16.0 mg/kg/injection, schedule: Q08DX002 (ip), vehicle: saline): 105 % of control
T/C (endpoint: median survival time, dose: 32.0 mg/kg/injection, schedule: Q01DX001 (ip), vehicle: saline): 98 % of control
T/C (endpoint: median survival time, dose: 32.0 mg/kg/injection, schedule: Q04DX003 (ip), vehicle: saline): 101 % of control
T/C (endpoint: median survival time, dose: 32.0 mg/kg/injection, schedule: Q08DX002 (ip), vehicle: saline): 102 % of control
T/C (endpoint: median survival time, dose: 64.0 mg/kg/injection, schedule: Q01DX001 (ip), vehicle: saline): 98 % of control
T/C (endpoint: median survival time, dose: 64.0 mg/kg/injection, schedule: Q04DX003 (ip), vehicle: saline): 104 % of control
T/C (endpoint: median survival time, dose: 64.0 mg/kg/injection, schedule: Q08DX002 (ip), vehicle: saline): 107 % of control
T/C (endpoint: median survival time, dose: 128.0 mg/kg/injection, schedule: Q01DX001 (ip), vehicle: saline): 105 % of control
T/C (endpoint: median survival time, dose: 128.0 mg/kg/injection, schedule: Q04DX003 (ip), vehicle: saline): 115 % of control
T/C (endpoint: median survival time, dose: 128.0 mg/kg/injection, schedule: Q08DX002 (ip), vehicle: saline): 97 % of control
T/C (endpoint: median survival time, dose: 256.0 mg/kg/injection, schedule: Q01DX001 (ip), vehicle: saline): 107 % of control

Cc1c(O)c(N=NC(N)=S)c2ccccc2c1O
T/C [1]: 100 % of control
T/C [2]: 102 % of control
T/C [3]: 100 % of control

CC(C)=NNc1cc(N)nc2c1ncn2C1OC(CO)C(O)C1O (centres undefined)
T/C (endpoint: mean survival time, dose: 50.0 mg/kg/injection, schedule: Q01DX005 (ip), vehicle: water): 90 % of control
T/C (endpoint: mean survival time, dose: 100.0 mg/kg/injection, schedule: Q01DX005 (ip), vehicle: water): 94 % of control
T/C (endpoint: mean survival time, dose: 200.0 mg/kg/injection, schedule: Q01DX005 (ip), vehicle: water): 104 % of control

N#CC1(NC(=O)N(CCCl)N=O)CCCCC1
T/C (endpoint: mean survival time, dose: 6.25 mg/kg/injection, schedule: Q01DX001 (ip), vehicle: distilled water + Tween-80): 119 % of control and 108 % of control
T/C (endpoint: mean survival time, dose: 25.0 mg/kg/injection, schedule: Q01DX001 (ip), vehicle: distilled water + Tween-80): 150 % of control
T/C (endpoint: mean survival time, dose: 50.0 mg/kg/injection, schedule: Q01DX001 (ip), vehicle: distilled water + Tween-80): 172 % of control and 258 % of control

Nc1cc(OCc2ccccc2)c2n[nH]nc2n1
T/C (endpoint: mean survival time, dose: 25.0 mg/kg/injection, schedule: Q01DX005 (ip), vehicle: other): 96 % of control
T/C (endpoint: mean survival time, dose: 50.0 mg/kg/injection, schedule: Q01DX005 (ip), vehicle: other): 92 % of control
T/C (endpoint: mean survival time, dose: 200.0 mg/kg/injection, schedule: Q01DX005 (ip), vehicle: other): 94 % of control
T/C (endpoint: mean survival time, dose: 400.0 mg/kg/injection, schedule: Q01DX005 (ip), vehicle: other): 105 % of control

CCCCCCCCCC(=O)NCC[N+](C)(C)C
T/C (endpoint: mean survival time, dose: 5.0 mg/kg/injection, schedule: Q01DX001 (ip), vehicle: saline): 107 % of control
T/C (endpoint: mean survival time, dose: 10.0 mg/kg/injection, schedule: Q01DX001 (ip), vehicle: saline): 102 % of control
T/C (endpoint: mean survival time, dose: 20.0 mg/kg/injection, schedule: Q01DX001 (ip), vehicle: saline): 103 % of control
T/C (endpoint: mean survival time, dose: 40.0 mg/kg/injection, schedule: Q01DX001 (ip), vehicle: saline): 103 % of control
T/C (endpoint: mean survival time, dose: 80.0 mg/kg/injection, schedule: Q01DX001 (ip), vehicle: saline): 103 % of control

CC(NC1CCCCC1)c1ccc(O)cc1O (centres undefined)
T/C (endpoint: mean survival time, dose: 75.0 mg/kg/injection, schedule: Q01DX001 (ip), vehicle: other): 93 % of control
T/C (endpoint: mean survival time, dose: 150.0 mg/kg/injection, schedule: Q01DX001 (ip), vehicle: other): 87 % of control

Cc1cc(O)c(Br)c(C)c1Br
T/C [4]: 111 % of control
T/C [1]: 104 % of control
T/C [5]: 98 % of control
T/C [2]: 97 % of control
T/C (endpoint: mean survival time, dose: 400.0 mg/kg/injection, schedule: Q01DX009 (ip), vehicle: saline with Tween-80): 106 % of control
T/C [3]: 101 % of control

CN(C)C(=O)On1cccc1C#N
T/C (endpoint: mean survival time, dose: 0.78 mg/kg/injection, schedule: Q01DX001 (ip), vehicle: saline): 95 % of control
T/C (endpoint: mean survival time, dose: 1.56 mg/kg/injection, schedule: Q01DX001 (ip), vehicle: saline): 98 % of control
T/C (endpoint: mean survival time, dose: 3.13 mg/kg/injection, schedule: Q01DX001 (ip), vehicle: saline): 98 % of control

CCCCC(CC)CNC(=O)CI (centres undefined)
T/C (endpoint: mean survival time, dose: 100.0 mg/kg/injection, schedule: Q01DX001 (ip), vehicle: saline): 96 % of control

C/C=C\c1ccc(OCCOC(=O)Nc2c(Cl)cccc2Cl)c(OC)c1
T/C [6]: 103 % of control
T/C [7]: 97 % of control
T/C (endpoint: mean survival time, dose: 50.0 mg/kg/injection, schedule: Q01DX009 (ip), vehicle: saline with Tween-80): 94 % of control and 99 % of control
T/C [4]: 94 % of control
T/C [5]: 94 % of control

Cc1c(O)c(=O)n(-c2ccccc2)n1C
T/C [1]: 96 % of control
T/C [2]: 93 % of control
T/C [3]: 96 % of control

CCCCC(CCCC)c1ccccn1
T/C (endpoint: mean survival time, dose: 6.25 mg/kg/injection, schedule: Q01DX009 (ip), vehicle: saline with Tween-80): 91 % of control
T/C [6]: 96 % of control
T/C [7]: 96 % of control

CC1(C)COC(C)(C(=O)O)OC1
T/C [1]: 98 % of control
T/C [2]: 98 % of control
T/C [3]: 96 % of control

CCOC1=C([N+](=O)[O-])C(c2ccccc2)NC1=O (centres undefined)
T/C [1]: 95 % of control
T/C [2]: 95 % of control
T/C [3]: 89 % of control

O=C(COc1ccccc1[N+](=O)[O-])CN1C(=O)c2ccccc2C1=O
T/C (endpoint: mean survival time, dose: 100.0 mg/kg/injection, schedule: Q04DX002 (ip), vehicle: saline with Tween-80): 91 % of control
T/C (endpoint: mean survival time, dose: 200.0 mg/kg/injection, schedule: Q04DX002 (ip), vehicle: saline with Tween-80): 91 % of control
T/C (endpoint: mean survival time, dose: 400.0 mg/kg/injection, schedule: Q04DX002 (ip), vehicle: saline with Tween-80): 91 % of control
